In patent publication US4772616A, “Treatment of ocular hypertension and glaucoma with dopamine antagonists” (priority 1987, dated 1988):
Entries after “also recorded” stand apart in the source; their conditions may differ. Where two headings read alike, the source gives them in different places.

Legend:
[1] = tested on: intraocular pressure (IOP); assay: Intraocular pressure (IOP) recovery model in rabbits after hypertonic saline (20% NaCl) infusion; type: in vivo, Albino rabbits; conditions: for potency in lowering intraocular pressure compared with timolol: FIGS. 1-5; for potency in lowering intraocular pressure compared with pilocarpine and timolol: in vivo
Method: Albino rabbits of either sex, weighing 2.25-2.5 kg were used for this intraocular pressure (IOP) recovery model experiment. Hypertonic saline (20% NaCl) was infused into the ear vein at a rate of 1 ml/min. for 10 minutes. The IOP was determined with Mackay-Marg electronic applanation tonometer (Berkeley Bio-Engineering, San Leandro, Calif.) at 0, 5, 10, 15, 20, 40, 60, 80, and every 30 minutes thereafter. The IOP decreased abruptly right after the infusion of hypertonic saline and recovered to normal in approximately 80-110 minutes. Identical experiments were repeated with the same group of animals one week later, wherein addition to the hypertonic saline infusion, haloperidol was instilled into the eyes in the form of 50 μl of an aqueous solution of 0.125 wt % haloperidol.
The procedure performed in Example 1 was carried out in the same manner, except that an aqueous solution of 0.25 wt % haloperidol was employed.
The procedure performed in Example 1 was carried out in the same manner, except that an aqueous solution of 0.25 wt % moperone was used.
The procedure performed in Example 1 was carried out in the same manner, except that an aqueous solution of 0.25 wt % trifluperidol was used.
The procedure performed in Example 1 was carried out in the same manner, except that an aqueous solution of 0.25 wt % L-timolol was used.
The procedure performed in Example 1 was carried out in the same manner, except that an aqueous solution of 0.25 wt % clofluperol was used.
The procedure performed in Example 1 was carried out in the same manner, except that an aqueous solution of 0.25 wt % floropipamide was used.
The procedure performed in Example 1 was carried out in the same manner, except that an aqueous solution of 0.25 wt % lenperone was used.
The procedure performed in Example 1 was carried out in the same manner with the following exceptions: (a) an Alcon electronic applanation tonometer (Alcon Laboratories, Inc., Ft. Worth, Tex.) was used to determine IOP; and (b) an aqueous solution of 0.25 wt % trifluoperazine was used.
The procedure performed in Example 10 was carried out in the same manner, except that an aqueous solution of 0.25 wt % chlorpromazine was used.
The procedure performed in Example 10 was carried out in the same manner, except that an aqueous solution of 0.5 wt % domperidone was used.

[2] = tested on: aqueous humor formation and intraocular pressure; assay: Studies of ability to reduce aqueous humor formation and intraocular pressure in rabbits and cats; conditions: rabbit, in vivo
From the text: The dopamine antagonists of the present invention have been studied with respect to their ability to reduce aqueous humor formation and intraocular pressure in rabbits and cats. The studies indicate that the compounds are effective in reducing aqueous humor formation and intraocular pressure subsequent to topical and intracameral application.

intraocular pressure = conditions: cited from earlier work
[3] = Systemic absorption after topical instillation to the eye; type: in vivo; conditions: assuming not more than 10% of topically instilled drug absorbed systemically
[4] = tested on: aqueous humor (AH) dynamics; assay: Cat eye model, aqueous humor (AH) dynamics (rates of AH formation and outflow, blue dextran); type: in vivo, cats; conditions: 50 μl of 0.5% eye drops
Method: The cat eye model was used for the study of haloperidol actions in aqueous humor (AH) dynamics. Briefly, cats of either sex weighing 2.5-4.0 kg were anesthetized with 30 mg/kg of pentobarbital sodium. Systemic blood pressure was monitored through cannulation at the femoral artery and additional pentobarbital was injected via femoral vein. Three needles were put into each eye. The first one was placed in the anterior chamber for the monitoring of IOP. The second one was placed at the posterior chamber for the infusion of AH-like solution containing 0.01% of blue dextran (NaCl, 137; KCl, 4.7; CaCl2, 1.53; MgCl2, 0.67; Na2 HPO4, 0.11 and dextrose, 5.56 mM). The rate of the infusion was adjusted to 38 μl/min. The third one was placed in the anterior chamber to serve as an overflow outlet. The overflown solution passed through a microspectrophotometric cell (ISCO, UA-5, Lincoln, Nebr.) for the detection of changes of blue dextran concentration and through a drop counter (ISCO, Model 328) for the recording of overflow rate.
Haloperidol (50 μl of 0.5% eye drops) was instilled to the eyes when the blue dextran tracings were stabilized (in about 2 hrs. after the initiation of the infusion). The rates of AH formation (rf) and outflow (ro) were calculated as follows: […]

[5] = background; cited from earlier work
[6] = background; cited from earlier work; remark: listed apart in the source
[7] = Oryctolagus cuniculus, topical, read-out: Difference in Max Reduction of IOP
[8] = rabbit, 0.25% drug, Alcon electronic applanation tonometer
[9] = rabbit, 0.25 wt % aqueous solution, Alcon tonometer
[10] = rabbit, 0.125% drug, Mackay-Marg tonometer, 50 μl eye instillation
[11] = rabbit, 0.25 wt % aqueous solution
[12] = Oryctolagus cuniculus, topical, rabbit, 0.25% drug, Mackay-Marg tonometer, 100% control IOP 20.2 ± 1.3 mm Hg, 20% saline alone 65 ± 1, read-out: Difference in Max Reduction of IOP
[13] = rabbit, 0.25% drug, Mackay-Marg tonometer, 50 μl eye instillation
[14] = rabbit, 0.25 wt % aqueous solution, Mackay-Marg tonometer

CN(C)CCCN1c2ccccc2Sc2ccc(Cl)cc21 [Chlorpromazine]
response vs control in vivo at 0.25 % [1, 7]: 52 ± 3% | Time Delay for IOP Recovery Relative to Control [1, 8]: 120 min | shift of the IOP recovery curve relative to the control curve [1, 9]: indicates the ocular hypotensive action

O=C(CCCN1CCC(O)(c2ccc(Cl)c(C(F)(F)F)c2)CC1)c1ccc(F)cc1 [Clofluperol]
reduction of aqueous humor formation and intraocular pressure [2]: reduce significantly | potency in lowering intraocular pressure compared with timolol [1]: at least equipotent to timolol | response vs control in vivo at 0.125 % [1, 7]: 59 ± 2% | Time Delay for IOP Recovery Relative to Control [1, 10]: 60 min | IOP recovery compared with L-timolol [1, 11]: generally equivalent to that of L-timolol

CC(C)(C)NC[C@@H](O)COc1nsnc1N1CCOCC1 [D-timolol]
intraocular pressure reducing response compared with S isomer (intraocular pressure; U.S. Pat. No. 4,521,414): substantially equivalent to that of the S isomer

O=c1[nH]c2ccccc2n1CCCN1CCC(n2c(=O)[nH]c3cc(Cl)ccc32)CC1 [Domperidone]
response vs control in vivo at 0.5 % [1, 7]: 56 ± 4% | Time Delay for IOP Recovery Relative to Control ([1]; rabbit, 0.5% drug, Alcon electronic applanation tonometer): 210 min | shift of the IOP recovery curve relative to the control curve ([1]; rabbit, 0.5 wt % aqueous solution, Alcon tonometer): indicates the ocular hypotensive action

NC(=O)C1(N2CCCCC2)CCN(CCCC(=O)c2ccc(F)cc2)CC1 [Floropipamide]
reduction of aqueous humor formation and intraocular pressure [2]: reduce significantly | potency in lowering intraocular pressure compared with timolol [1]: at least equipotent to timolol | response vs control in vivo at 0.25 % [1, 12]: 60 ± 3% | Time Delay for IOP Recovery Relative to Control [1, 13]: 60 min | IOP recovery compared with L-timolol [1, 11]: generally equivalent to that of L-timolol

O=C(CCCN1CCC(O)(c2ccc(Cl)cc2)CC1)c1ccc(F)cc1 [Haloperidol, 4-[4-(p-chlorophenyl)-4-hydroxypiperidino]-4'-fluorobutyrophenone]
reduction of aqueous humor formation and intraocular pressure [2]: reduce significantly | anti-psychotic dosage level potentially absorbed as a result of glaucoma therapy [3]: 0.2% to 0.65 | AH formation ([4]; following the initial outflow increase): decrease in aqueous humor formation; also recorded: decrease in AH formation | AH outflow ([4]; initial effect): initial increase in aqueous humor outflow; also recorded: initially caused an increase in AH outflow | potency in lowering intraocular pressure compared with timolol [1]: more potency than timolol | response vs control in vivo at 0.125 % [1, 7]: 45 ± 2% | response vs control in vivo at 0.25 % [1, 7]: 46 ± 2% | Time Delay for IOP Recovery Relative to Control [1, 10]: 180 min | shift of the IOP recovery curve relative to the control curve ([1]; rabbit, 0.125 wt % aqueous solution): indicates the ocular hypotensive action | Time Delay for IOP Recovery Relative to Control [1, 13]: 270 min | shift of the IOP recovery curve relative to the control curve [1, 14]: indicates the ocular hypotensive action | potency in lowering intraocular pressure compared with pilocarpine and timolol ([1]; rabbit): more potent than pilocarpine and timolol

O=C(CCCN1CCC(C(=O)c2ccc(F)cc2)CC1)c1ccc(F)cc1 [Lenperone]
reduction of aqueous humor formation and intraocular pressure [2]: reduce significantly | potency in lowering intraocular pressure compared with timolol [1]: at least equipotent to timolol | response vs control in vivo at 0.25 % [1, 12]: 61 ± 2% | Time Delay for IOP Recovery Relative to Control [1, 13]: 60 min | IOP recovery compared with L-timolol [1, 11]: generally equivalent to that of L-timolol

Cc1ccc(C2(O)CCN(CCCC(=O)c3ccc(F)cc3)CC2)cc1 [Moperone]
reduction of aqueous humor formation and intraocular pressure [2]: reduce significantly | potency in lowering intraocular pressure compared with timolol [1]: more potency than timolol | response vs control in vivo at 0.25 % [1, 12]: 55 ± 1% | Time Delay for IOP Recovery Relative to Control [1, 13]: 180 min | shift of the IOP recovery curve relative to the control curve [1, 14]: indicates the ocular hypotensive action | potency in lowering intraocular pressure compared with pilocarpine and timolol ([1]; rabbit): more potent than pilocarpine and timolol

CC(C)(C)NC[C@H](O)COc1nsnc1N1CCOCC1 [Timolol, 1-tert-butyl-amino-3-[(4-morpholino-1,2,5-thiadiazol-3-yl)oxy]-2-propanol]
local anesthetic action [5]: lack of local anesthetic action | tolerance [5]: minimal tolerance | systemic absorption after topical administration to the eye [6]: a small portion is absorbed into the systemic circulation | response vs control in vivo at 0.25 % [1, 12]: 62 ± 4% | Time Delay for IOP Recovery Relative to Control [1, 13]: 60 min

CN1CCN(CCCN2c3ccccc3Sc3ccc(C(F)(F)F)cc32)CC1 [Trifluoperazine]
response vs control in vivo at 0.25 % ([1]; Oryctolagus cuniculus, topical, rabbit, 0.25% drug, Alcon tonometer, 100% control IOP 20.2 ± 1.3 mm Hg, 20% saline alone 65 ± 1, read-out: Difference in Max Reduction of IOP): 49 ± 4% | Time Delay for IOP Recovery Relative to Control [1, 8]: 150 min | shift of the IOP recovery curve relative to the control curve [1, 9]: indicates the ocular hypotensive action

CC[C@@H]1C(=O)OC[C@@H]1Cc1cncn1C [pilocarpine]
mechanism: effect on aqueous humor outflow and formation (intraocular pressure; comparison with haloperidol): increases aqueous humor outflow without affecting aqueous humor formation
